We go through 12 compounds from patent US10561143B2, “Fungicidal composition having synergistic effect” (JIANGSU HUIFENG AGROCHEMICAL CO., LTD., priority 2013, dated 2020).

Each structure is given as a SMILES string. ≈ marks a conversion by molar mass, not a printed value. Like-named read-outs stand apart in the source and are kept apart here.

The test system of assay [1] is downy mildew pathogens of grape. As to the kind of experiment: Toxicity test on downy mildew pathogens of grape (disease index and control effect on whole grape plants, EC50 and co-toxicity coefficient).
The subject of assay [2] is late blight pathogens of potato. As to the kind of experiment: whole plant or invertebrate. The assay is classed as in vivo.
The mark [3] stands for this setting: Table 6, series with fluopicolide.
The mark [4] stands for this setting: Table 9, series with picoxystrobin.

In general, EC50 refers to the concentration at which the effect is half-maximal. A low value points to higher potency in that assay.

In assay [1], `C[C@@]1(c2ccc(Oc3ccccc3)cc2)OC(=O)N(Nc2ccccc2)C1=O` (racemic) [Famoxadone] came in with a 50% effective concentration (EC50) of 13.8 µg/mL (≈ 36.9 µM).
In the case of `CC(C)OC(=O)N[C@H](C(=O)N[C@H](C)c1nc2ccc(F)cc2s1)C(C)C` [Benthiavalicarb-isopropyl], the EC50 in assay [2] (Phytophthora infestans) came out at 6.73 µg/mL (≈ 17.6 µM); in assay [1], 10.8 µg/mL (≈ 28.2 µM).
In the case of `Cl.O=c1[nH]sc2ccccc12` [Benziothiazolinone hydrochloride], the EC50 in assay [1] (Table 10, series with fluazinam) was found to be 12.87 µg/mL.
`O=c1[nH]sc2ccccc12` [Benziothiazolinone]: the concentration for a half-maximal effect (EC50) in assay [2] (Table 11, series with pyraclostrobin) turned out to be 6.89 µg/mL (≈ 45.6 µM); in assay [2] (Table 12, series with boscalid), 5.58 µg/mL (≈ 36.9 µM); in assay [2] (Table 13, series with benthiavalicarb-isopropyl), 6.22 µg/mL (≈ 41.1 µM); in assay [2] (Table 14, series with zoxamide), 5.89 µg/mL (≈ 39 µM); in assay [2] (Table 15, series with fenamidone), 6.12 µg/mL (≈ 40.5 µM); in assay [1] (Table 1, series with benthiavalicarb-isopropyl) it was 8.92 µg/mL (≈ 59 µM). Also, the EC50 in assay [1] (Table 2, series with zoxamide) came to 9.41 µg/mL (≈ 62.2 µM); in assay [1] (Table 3, series with prothioconazole), 10.05 µg/mL (≈ 66.5 µM); in assay [1] (Table 4, series with boscalid), 9.46 µg/mL (≈ 62.6 µM); in assay [1] (Table 5, series with fenamidone), 10.59 µg/mL (≈ 70 µM); in assay [1] (setting [3]) it was 12.17 µg/mL (≈ 80.5 µM); in assay [1] (Table 7, series with famoxadone) it was 11.36 µg/mL (≈ 75.1 µM). Further, the EC50 in assay [1] (Table 8, series with pyraclostrobin) was determined as 11.85 µg/mL (≈ 78.4 µM); in assay [1] (setting [4]), 14.18 µg/mL (≈ 93.8 µM).
Regarding `O=C(Nc1ccccc1-c1ccc(Cl)cc1)c1cccnc1Cl` [Boscalid], the values for the EC50 in assay [2] (Phytophthora infestans) and in assay [1] were 6.31 µg/mL (≈ 18.4 µM) and 11.6 µg/mL (≈ 33.8 µM), respectively.
For `CSC1=N[C@@](C)(c2ccccc2)C(=O)N1Nc1ccccc1` [Fenamidone] the same measures were 6.58 µg/mL (≈ 21.1 µM) and 12.8 µg/mL (≈ 41 µM).
Turning to `O=[N+]([O-])c1cc(C(F)(F)F)c(Cl)c([N+](=O)[O-])c1Nc1ncc(C(F)(F)F)cc1Cl` [Fluazinam], the response in assay [1] was half-maximal at 11.2 µg/mL (≈ 24.2 µM) (EC50).
In turn, `O=C(NCc1ncc(C(F)(F)F)cc1Cl)c1c(Cl)cccc1Cl` [Fluopicolide] showed a concentration giving a half-maximal response (EC50) in assay [1] (setting [3]) of 15.32 µg/mL (≈ 39.9 µM).
`CO/C=C(/C(=O)OC)c1ccccc1COc1cccc(C(F)(F)F)n1` [Picoxystrobin]: the EC50 in assay [1] (setting [4]) was found to be 15.31 µg/mL (≈ 41.7 µM).
In assay [1], `OC(Cc1ccccc1Cl)(Cn1nc[nH]c1=S)C1(Cl)CC1` (stereo not drawn) [Prothioconazole] returned a concentration for a half-maximal effect (EC50) of 13.3 µg/mL (≈ 38.5 µM).
With `CCC(C)(NC(=O)c1cc(Cl)c(C)c(Cl)c1)C(=O)CCl` (stereo not drawn) [Zoxamide], the figures for the EC50 in assay [2] (Phytophthora infestans) and in assay [1] were 6.21 µg/mL (≈ 18.4 µM) and 11.5 µg/mL (≈ 34.1 µM), respectively.
Take `COC(=O)N(OC)c1ccccc1COc1ccn(-c2ccc(Cl)cc2)n1` [pyraclostrobin]: the EC50 was determined as 5.28 µg/mL (≈ 13.6 µM) in assay [2] (Phytophthora infestans) and 10.7 µg/mL (≈ 27.6 µM) in assay [1].
